Non-standard residues stand in square brackets, D forms with d. Residues, ends and D or L forms follow the SMILES beside them.
Experiments:
MCF-10A cells = conditions: 0-50 µM, 72 h, trypan blue, Fig. S11
[1] = Immunogenicity, ELISA of anti-M1-21 antibodies in serum; type: in vivo, mouse; conditions: ICR/JCL mice, 30 mg/kg/week × 4 weeks I.P., serum Week 2 to Week 8, 1:1000, ELISA 492 nm; except at Week 4
Experimental: One week later, the animals’ different organs were harvested and subjected to tissue sectioning and H&E staining. Photos were taken by inverted microscope (400×, Nikon TE2000). […] The mice’s diet and activity were observed continuously for 14 days. […] Water and PBS were used as hemolysis positive and negative controls, respectively. The absorbance of the samples was measured at 540 nm and used to calculate the Hemolysis rate % = [(OD Sample - OD Negative) / (OD Positive - OD Negative)] × 100%. E Immunogenicity analysis of M1-21. […] Blood samples were collected from mice at different time points (Week 2 to Week 8) and the absorption of anti-M1-21 antibody in serum (1:1000 dilution) was measured by ELISA. HRP-conjugated anti-mouse IgG was used as an ELISA secondary antibody.
Hemolysis assays were performed with fresh mouse blood collected and dispersed in normal saline (NaCl 0.9%) at 10% (v/v). […] Sterile double distilled water and PBS were used as positive and negative controls, respectively. Immunogenicity of M1-21 was detected by ELISA in mice. […] Blood samples were collected from mice at different time points (Week 2 to Week 8). […] ELISA plates were washed twice with PBS and blocked with 3% bovine serum albumin for 2 h. […] Absorption was measured at 492 nm.

FOXM1/DNA complex = FOXM1/DNA complex (Homo sapiens, UniProt Q08050); assay: Electrophoretic Mobility Shift Assays (EMSAs); type: biochemical; conditions: recombinant FOXM1 2 µM, FAM-labeled DNA probe 50 nM, M1-21 0.5, 1, 2 µM
FOXM1/DNA complex, sequence (Q08050 1-748 isoform Q08050-2, one chain of several): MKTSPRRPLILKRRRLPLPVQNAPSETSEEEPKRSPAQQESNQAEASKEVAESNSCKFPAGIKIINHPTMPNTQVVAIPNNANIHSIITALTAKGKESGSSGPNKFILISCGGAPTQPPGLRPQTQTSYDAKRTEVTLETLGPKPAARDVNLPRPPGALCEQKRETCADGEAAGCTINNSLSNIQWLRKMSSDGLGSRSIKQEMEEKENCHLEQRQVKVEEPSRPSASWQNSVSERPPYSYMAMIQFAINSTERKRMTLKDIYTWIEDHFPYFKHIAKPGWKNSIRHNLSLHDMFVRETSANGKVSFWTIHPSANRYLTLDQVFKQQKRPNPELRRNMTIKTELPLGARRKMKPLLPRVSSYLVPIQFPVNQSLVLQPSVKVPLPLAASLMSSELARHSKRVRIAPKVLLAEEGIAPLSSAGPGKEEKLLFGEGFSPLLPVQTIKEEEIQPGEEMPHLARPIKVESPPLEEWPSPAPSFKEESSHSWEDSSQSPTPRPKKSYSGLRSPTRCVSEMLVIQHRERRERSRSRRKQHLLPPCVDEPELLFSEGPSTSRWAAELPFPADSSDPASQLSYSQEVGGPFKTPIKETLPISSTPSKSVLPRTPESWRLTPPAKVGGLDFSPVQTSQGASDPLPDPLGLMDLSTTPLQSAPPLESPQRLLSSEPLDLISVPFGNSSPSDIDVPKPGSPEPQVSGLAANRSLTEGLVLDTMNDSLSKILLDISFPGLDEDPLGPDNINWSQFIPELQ
Experimental: A FAM-labeled DNA probe (50 nM) was mixed with recombinant FOXM1 protein (2 µM) for EMSAs. […] The specificity of FOXM1/DNA complex formation was shown using 100× unlabeled DNA probes (cold probes, 5000 nM). Reactions were resolved in 4% native polyacrylamide gel electrophoresis in 0.5×TBE and visualized with a Kodak 4000 MM Imaging System (EX: 465 nm, EM: 535 nm). B The docking of P22 to FOXM1 DNA Binding domain (DBD, PDB ID 3G73) was created by Rosetta FlexPepDock and PyMOL. Left, the interface of peptide-protein interaction, peptide was shown in cyan and FOXM1 DBD was shown according to its electrostatic potential. Right, hydrogen bonds were formed by residues (blue from peptide and black from FOXM1 DBD) at the interface of peptide and protein interaction.
The double-strand DNA (dsDNA) probe was synthesized by Sangon Co., Ltd. (Shanghai, China). Protein (2 µM) was incubated with FAM-labeled dsDNA probe (50 nM) in binding buffer (20 mM Tris-Cl, 50 mM KCl, 0.5 mM EDTA, 0.2 mM DTT, 10% glycerol, pH 7.6) for 30 min on ice. […] The reactions were resolved in 4% native polyacrylamide gel electrophoresis in 0.5×TBE and visualized with Kodak 4000 MM Imaging System (Kodak, USA) (EX: 465 nm, EM: 535 nm for FAM). Sequence information is available in Supplementary Table S3.

[2] = tested on: − 1.4 kb promoter of PLK1; assay: Dual luciferase reporter, CHR-containing promoter; conditions: HEK-293T, PLK1 pro(-1.4 kb)-Luc with pCMV-FOXM1; 5, 10, 20 µM for 24 h; n = 3
[3] = target: truncated FOXM1 recombinant proteins tagged by GST (Homo sapiens, UniProt Q08050); assay: Pulldown of GST-tagged truncated FOXM1 recombinant proteins; conditions: Biotin-M1-21 20 µM, recombinant protein 100 µg; Ponceau S
truncated FOXM1 recombinant proteins tagged by GST, sequence (Q08050 703-763): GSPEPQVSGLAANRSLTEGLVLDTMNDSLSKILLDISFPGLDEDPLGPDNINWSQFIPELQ

[4] = target: interaction between FOXM1 and β-catenin (Homo sapiens, UniProt Q08050); assay: Co-IP in 231-Flag-FOXM1-Ind cells; conditions: 10, 20 µM for 6 h
interaction between FOXM1 and β-catenin, sequence (Q08050 1-748 isoform Q08050-2): as the sequence (Q08050 1-748 isoform Q08050-2, one chain of several) above

[5] = tested on: MDA-MB-231 engrafted tumors; assay: MDA-MB-231 tumor-engrafted BALB/c nude mice
[6] = target: FOXM1:LIN9 or FOXM1: B-MYB (Homo sapiens, UniProt Q08050); assay: Co-IP in 231-Flag-FOXM1-Ind cells; conditions: 10, 20 µM for 6 h, dose-dependent
FOXM1:LIN9 or FOXM1: B-MYB, sequence (Q08050 1-748 isoform Q08050-2): as the sequence (Q08050 1-748 isoform Q08050-2, one chain of several) above

[7] = target: T1, interaction between FOXM1 and PLK1 (Homo sapiens, UniProt Q08050); assay: Co-IP in 231-Flag-FOXM1-Ind cells; type: cell-based; conditions: doxycycline 200 ng/mL 24 h, M1-21 10, 20 µM or TAT-106-126 20, 40, 80 µM for 6 h
T1 construct: expressed in transfected cells; host or cells: MDA-MB-231 stably infected with pLVX-TetOne-Flag-FOXM1b lentivirus (231-Flag-FOXM1-Ind), doxycycline-induced
T1 sequence (Q08050 1-748 isoform Q08050-2): as the sequence (Q08050 1-748 isoform Q08050-2, one chain of several) above
Source text: Number of repetitions = 3. […] Number of repetitions = 3. […] Number of repetitions = 3. […] GAPDH was used as a loading control.

[8] = tested on: FOXM1-binding promoters (6xFOXM1 binding sequence-containing promoter, − 1.8 kb promoter of CDC25B); assay: Dual luciferase reporter, FOXM1-binding promoters; conditions: HEK-293T, cotransfection with pCMV-FOXM1; M1-21 5, 10, 20 µM for 24 h; n = 3
β-catenin = β-catenin levels in cytosol and nuclear protein samples; conditions: MDA-MB-231, 20 µM for 6 h; Western blotting
4T1-Luc-GFP cells = assay: 4T1-Luc-GFP metastasis tracing in wild-type BALB/c mice; conditions: 15 or 30 mg/kg intraperitoneal every two days
TCF/LEF-binding promoter = assay: Dual luciferase reporter, TCF/LEF-binding promoter; conditions: HEK-293T; 5, 10, 20 µM for 24 h; n = 3
MDA-MB-231 cells = assay: Colony formation assay; conditions: MDA-MB-231, 200 cells/well, 20 µM, 14 days; versus M1-21mut

CC[C@@H](C)[C@@H](NC(=O)[C@@H](CC(C)C)NC(=O)[C@H](NC(=O)[C@@H](CO)NC(=O)[C@@H](CS)NC(=O)CNC(=O)CNC(=O)[C@@H](C)NC(=O)[C@H]1CCCN1C(=O)[C@H](NC(=O)[C@@H](CCC(N)=O)NC(=O)[C@H]1CCCN1C(=O)[C@H]1CCCN1C(=O)CNC(=O)[C@@H](CC(C)C)NC(=O)[C@@H](CCCNC(=N)N)NC(=O)[C@H]1CCCN1C(=O)[C@@H](CCC(N)=O)NC(=O)[C@H](NC(=O)[C@H](N)CCC(N)=O)[C@H](C)O)[C@H](C)O)[C@H](C)CC)C(=O)N[C@H](Cc1ccccc1)C(=O)N[C@H](CCCNC(=N)N)C(=O)N[C@H](CCCNC(=N)N)C(=O)N[C@H](CCCNC(=N)N)C(=O)N[C@H](CCC(N)=O)C(=O)N[C@H](CCCNC(=N)N)C(=O)N[C@H](CCCNC(=N)N)C(=O)N[C@H](CCCCN)C(=O)N[C@H](CCCCN)C(=O)N[C@H](CCCNC(=N)N)C(=O)NCC(=O)O [M1-21] (H-[dQ][dT][dQ][dP][dR][dL]G[dP][dP][dQ][dT][dP][dA]GG[dC][dS][dI][dL][dI][dF][dR][dR][dR][dQ][dR][dR][dK][dK][dR]G-OH; N-terminus and C-terminus assumed)
inhibition of normal breast epithelial cells, in words (MCF-10A cells): did not inhibit
M1-21-specific antibody generation in serum [1]: relatively low levels
DNA binding ability of FOXM1 (EMSA) (FOXM1/DNA complex): did not disturb
FOXM1-MuvB-mediated stimulation on the CHR-containing promoter (luciferase) [2]: abolished FOXM1-MuvB-mediated stimulation
binding to GST-FOXM1_688-748 in Pulldown [3]: bound
interaction between FOXM1 and β-catenin (Co-IP) [4]: disrupted the interaction
size and weight of engrafted tumors at the end of the experiment ([5]; BALB/c nude mice, 30 mg/kg intraperitoneal once every two days, Day 19, n = 6): significantly decreased
growth of engrafted tumors (tumor volume) ([5]; BALB/c nude mice, 30 mg/kg intraperitoneal once every two days, n = 6, versus PBS): growth inhibition of engrafted tumors
levels of FOXM1, CDC25B and PLK1 in tumor samples ([5]; Western blotting of harvested cancer tissues, Fig. S12B): decreased levels
interaction of FOXM1:LIN9 or FOXM1: B-MYB (Co-IP) [6]: disrupted the interaction
interaction between FOXM1 and PLK1 (Co-IP) [7]: disrupted the interaction
FOXM1-mediated stimulation on FOXM1-binding promoters (luciferase) [8]: abrogated FOXM1-mediated stimulation
β-catenin levels in cytoplasm and nucleus (β-catenin): elevated levels of β-catenin in the cytoplasm and declined levels of β-catenin in the nucleus
survival time of the animals (4T1-Luc-GFP cells; Mantel-Cox, log rank test): significantly prolonged
metastasis of 4T1-Luc-GFP cells (in vivo luciferase imaging) (4T1-Luc-GFP cells; n = 6 per group, Day 1, 7, 17, organs Day 21): prevented metastasis
β-catenin-mediated stimulation on the TCF/LEF-binding promoter (luciferase) (TCF/LEF-binding promoter): abolished β-catenin-mediated stimulation
colony formation (MDA-MB-231 cells): inhibitory effects

Source: paper PMC10286459 (Cell & Bioscience, 2023)
